Results on one sequence are retold here after patent US20100255020A1, “METHOD FOR INDUCING CYTOTOXIC T-CELLS, CYTOTOXIC T-CELL INDUCERS, AND PHARMACEUTICAL COMPOSITIONS AND VACCINES EMPLOYING THEM” (NEC CORPORATION, priority 2007, published 2010).

Where no end group is shown, it is not given here.

By Kd is commonly meant the free concentration of one partner at which half of the binding sites on the other are occupied at equilibrium, for simple one-to-one binding.

The target of one experiment is T1, HLA-A*0206 molecule (Homo sapiens, UniProt P04439, D140Y/D185E/D98H/E176V/E277Q/F33Y/G131W/G231S/I119V/I121R/I166T/I218V/L300P/L318F/N151K/N90K/P208A/P217A/Q86G/Q94H/R138H/R169H/T345S).
T1 construct: expressed in transfected cells; host or cells: RA2.6 (mouse TAP-deficient RMAS cells transfected with pMKITneo bearing HLA-A*0206 cDNA)
As to the kind of experiment: Peptide binding to HLA-A*0206 molecule on RA2.6 cells (flow cytometry, Kd). The settings on record: HLA-A*0206, RA2.6 cells; read-out: Binding assay data (−log Kd) (converted). The protocol:
The ability of a peptide to bind to an HLA-A*0206 molecule, which is a product of the HLA-A*0206 gene, was measured using RA2.6 cells (cell line newly generated in Kochi University), wherein cDNA of the HLA-A*0206 gene is introduced into RMAS, which is a mouse TAP (transporter associated with antigen processing)-deficient cell line.
RA2.6 cells were first cultured overnight at 26° C., during this incubation HLA-A*0206 molecules devoid of bound peptide accumulated. Serial dilutions of peptide were added to these cells and peptide binding was carried out at room temperature for 30 minutes.
Subsequently, culture was carried out at 37° C. for 3.5 hours, during this incubation empty HLA-A*0206 molecules to which no peptide was bound were denatured, and the tertiary structure was lost.
The cells were stained by adding thereto fluorescently-labeled monoclonal antibody BB7.2, which specifically recognizes the peptide-bound HLA-A*0206 molecule, and incubating on ice for 20 minutes.
Subsequently, the amount of fluorescence per cell was measured using a flow cytometer, and a dissociation constant Kd value was calculated by a method published in the literature (Udaka et al., Immunogenetics, 51, 816-828, 2000).

Another experiment deals with HLA-A*2402 molecule (Homo sapiens, UniProt P04439, D101N/D140Y/D185E/E176V/E190D/F33S/G103R/G107R/I119L/I121M/I306V/K335N/L105A/L180Q/L300P/N151K/N90K/Q86E/Q94H/R106L/R138H/R89G/T104I/T345S/V100E/W191G/Y123F). The experiment in a line: Peptide binding to HLA-A*2402 molecule on C1R-A24 cells (flow cytometry, Kd). The settings on record: HLA-A*2402, C1R-A24 cells; read-out: Binding assay data (−log Kd) (converted). The procedure: The ability of a peptide to bind to an HLA-A*2402 molecule, which is a product of the HLA-A*2402 gene, was measured using C1R-A24 cells expressing the HLA-A*2402 molecule (cells generated by Professor Masafumi Takiguchi, Kumamoto University being supplied with permission by Associate Professor Masaki Yasukawa, Ehime University).
C1R-A24 cells were first exposed to acidic conditions at a pH of 3.3 for 30 seconds, thus dissociating and removing a β2m light chain, which is associated with HLA class I molecules in common, and an endogenous peptide originally bound to the HLA-A*2402 molecule. After neutralization, purified β2m was added to C1R-A24 cells, the obtained product was added to serial dilutions of a peptide, and incubated on ice for 4 hours. […]
Subsequently, the number of MHC-pep complexes per C1R-A24 cell (proportional to the intensity of fluorescence of the above-mentioned fluorescent antibody) was quantitatively measured using a FACScan fluorescence-activated flow cytometer (Becton Dickinson Biosciences). A dissociation constant Kd value between the HLA-A*2402 molecule and the peptide was calculated from the average intensity of fluorescence per cell by a method published in the literature (Udaka et al., Immunogenetics, 51, 816-828, 2000).
A general note: Flow cytometry measures light scatter and fluorescence of single cells or particles in a stream.

Turning to ALLPAVPSL [W10], the dissociation constant (Kd) was 18.2 nM on HLA-A*0206 molecule and 0.692 nM at HLA-A*2402 molecule.
